The record followed here is ChEMBL document CHEMBL5390283, “Discovery of PVD-06 as a Subtype-Selective and Efficient PTPN2 Degrader” (J Med Chem, 2023).

Usually pEC50 stands for the EC50 on a negative log10 scale, so that one unit is a factor of ten. A word on the pIC50: it is the negative decadic logarithm of the IC50, by convention in mol/L. A higher pIC50 goes with a low IC50.

pEC50, pIC50: −log10 of the molar value. Calls of active or inactive are those of the source. The calls are words filed in the database; no cut-off is given here.

Test [1] deals with T1, von Hippel-Lindau disease tumor suppressor/Tyrosine-protein phosphatase non-receptor type 2 (Homo sapiens, UniProt P17706+P40337). Put plainly: PROTAC activity at VHL/PTPN2 in human Jurkat cells assessed as induction of PTPN2 degradation at 100 nM by Western blot analysis relative to control. It counts as cell-based. A general note: A western blot detects proteins with antibodies after separation by electrophoresis.
Target sequence in this assay (P40337 whole entry, looked up, one chain of several): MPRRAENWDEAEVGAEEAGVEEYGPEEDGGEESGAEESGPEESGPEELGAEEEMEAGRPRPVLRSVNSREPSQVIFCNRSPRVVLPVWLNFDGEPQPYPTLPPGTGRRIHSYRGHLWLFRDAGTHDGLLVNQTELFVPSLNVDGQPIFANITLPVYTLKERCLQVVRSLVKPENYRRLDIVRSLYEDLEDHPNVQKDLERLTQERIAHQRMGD

For test [2], the target named is T1, von Hippel-Lindau disease tumor suppressor/Tyrosine-protein phosphatase non-receptor type 2. Put plainly: PROTAC activity at VHL/PTPN2 in human Jurkat cells assessed as induction of PTPN2 degradation at 1 uM by Western blot analysis relative to control. It counts as cell-based.
Target sequence in this assay (P40337 whole entry, looked up, one chain of several): as above
Test [3] shares this target. Put plainly: PROTAC activity at VHL/PTPN2 in human Jurkat cells assessed as induction of PTPN2 degradation at 10 uM by Western blot analysis relative to control. It counts as cell-based.
Target sequence in this assay (P40337 whole entry, looked up, one chain of several): as above
Test [4] has the same target. Put plainly: PROTAC activity at VHL/PTPN2 in human Jurkat cells assessed as induction of PTPN2 degradation by Western blot analysis. It is filed as cell-based.
Target sequence in this assay (P40337 whole entry, one chain of several): as the sequence (P40337 whole entry, looked up, one chain of several) above
Test [5] addresses von Hippel-Lindau disease tumor suppressor/Tyrosine-protein phosphatase non-receptor type 1 (Homo sapiens, UniProt P18031+P40337). Put plainly: PROTAC activity at VHL/PTP1B in human Jurkat cells assessed as induction of PTP1B degradation by Western blot analysis. It is filed as cell-based.
Test [6] addresses T1, von Hippel-Lindau disease tumor suppressor/Tyrosine-protein phosphatase non-receptor type 2. Put plainly: PROTAC activity at VHL/PTPN2 in human Jurkat cells assessed as induction of PTPN2 degradation at 1 uM incubated for 24 hrs by label free proteomic analysis. It is filed as cell-based.
Target sequence in this assay (P40337 whole entry, looked up, one chain of several): as above
Test [7] deals with Jurkat. Put plainly: Effect on PTPN1 level in human Jurkat cells at 1 uM incubated for 24 hrs by label free proteomic analysis. It is filed as functional, cell-based.
Test [8] concerns Jurkat. Put plainly: Effect on PTPN6 level in human Jurkat cells at 1 uM incubated for 24 hrs by label free proteomic analysis. It counts as functional, cell-based.
In test [9] the test system is Jurkat. The test can be described thus: Effect on PTPN7 level in human Jurkat cells at 1 uM incubated for 24 hrs by label free proteomic analysis. It is filed as functional, cell-based.
Test [10] has as its system Jurkat. Put plainly: Effect on PTPN9 level in human Jurkat cells at 1 uM incubated for 24 hrs by label free proteomic analysis. It is filed as functional, cell-based.
Test [11] relates to Jurkat. The test can be described thus: Effect on PTPN11 level in human Jurkat cells at 1 uM incubated for 24 hrs by label free proteomic analysis. It counts as functional, cell-based.
For test [12], the system named is Jurkat. Put plainly: Effect on PTPN18 level in human Jurkat cells at 1 uM incubated for 24 hrs by label free proteomic analysis. It is filed as functional, cell-based.
Test [13] deals with Jurkat. Put plainly: Effect on PTPN23 level in human Jurkat cells at 1 uM incubated for 24 hrs by label free proteomic analysis. It is filed as functional, cell-based.
In test [14] the target is T2, von Hippel-Lindau disease tumor suppressor/Receptor-type tyrosine-protein phosphatase N2 (Mus musculus) (UniProt P40338+P80560). The test can be described thus: PROTAC activity at VHL/PTPN2 in mouse B16-F10 cells assessed as induction of PTPN2 degradation at 0.013 to 10 uM by Western blot analysis. It counts as cell-based. To be noted: dose 0.013-10 µM.
T2 sequence (P40338 whole entry, looked up): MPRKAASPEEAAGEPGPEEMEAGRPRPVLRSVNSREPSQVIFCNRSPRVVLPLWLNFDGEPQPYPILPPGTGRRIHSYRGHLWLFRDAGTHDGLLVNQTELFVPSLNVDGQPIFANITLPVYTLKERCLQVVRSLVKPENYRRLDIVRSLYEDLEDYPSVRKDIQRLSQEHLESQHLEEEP
T2 sequence (P80560 whole entry, looked up): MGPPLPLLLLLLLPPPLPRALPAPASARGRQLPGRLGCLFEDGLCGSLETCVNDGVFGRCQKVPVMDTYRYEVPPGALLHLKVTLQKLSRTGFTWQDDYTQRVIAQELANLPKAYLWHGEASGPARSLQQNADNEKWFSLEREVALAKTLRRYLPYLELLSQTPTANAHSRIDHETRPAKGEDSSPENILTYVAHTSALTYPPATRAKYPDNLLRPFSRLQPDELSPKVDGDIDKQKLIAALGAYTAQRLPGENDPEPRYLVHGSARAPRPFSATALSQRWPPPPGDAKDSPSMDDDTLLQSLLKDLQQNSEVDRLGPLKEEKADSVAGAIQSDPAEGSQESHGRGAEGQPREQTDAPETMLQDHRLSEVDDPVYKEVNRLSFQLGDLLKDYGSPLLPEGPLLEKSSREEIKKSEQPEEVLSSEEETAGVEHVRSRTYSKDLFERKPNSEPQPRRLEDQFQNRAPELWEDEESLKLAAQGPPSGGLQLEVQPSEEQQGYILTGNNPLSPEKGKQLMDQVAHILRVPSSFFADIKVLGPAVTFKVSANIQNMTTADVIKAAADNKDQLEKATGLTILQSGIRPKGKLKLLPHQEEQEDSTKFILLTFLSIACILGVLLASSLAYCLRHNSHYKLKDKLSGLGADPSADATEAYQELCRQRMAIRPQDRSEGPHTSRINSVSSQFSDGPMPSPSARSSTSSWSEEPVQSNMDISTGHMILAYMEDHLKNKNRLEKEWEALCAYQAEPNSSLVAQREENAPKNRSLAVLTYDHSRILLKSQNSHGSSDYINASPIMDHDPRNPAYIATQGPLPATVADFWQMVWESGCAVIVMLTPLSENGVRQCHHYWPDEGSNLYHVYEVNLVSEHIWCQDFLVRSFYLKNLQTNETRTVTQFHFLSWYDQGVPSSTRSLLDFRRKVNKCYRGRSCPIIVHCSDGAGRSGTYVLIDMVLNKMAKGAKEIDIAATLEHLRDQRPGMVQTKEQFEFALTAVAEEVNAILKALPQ
Test [15] addresses T2, von Hippel-Lindau disease tumor suppressor/Receptor-type tyrosine-protein phosphatase N2 (Mus musculus). Put plainly: PROTAC activity at VHL/PTPN2 in mouse splenocytes assessed as induction of PTPN2 degradation at 0.013 to 10 uM by Western blot analysis. It is filed as cell-based. To be noted: Splenocyte, dose 0.013-10 µM.
For test [16], the system named is B16-F10. Put plainly: Effect on PTP1B level in mouse B16-F10 cells at 0.013 to 10 uM by Western blot analysis. The note with it: dose 0.013-10 µM. It counts as functional, cell-based.
Test [17] concerns B16-F10. The test can be described thus: Effect on SHP-1 level in mouse B16-F10 cells at 0.013 to 10 uM by Western blot analysis. It is filed as functional, cell-based. To be noted: dose 0.013-10 µM.
Test [18] relates to B16-F10. The test can be described thus: Effect on SHP-2 level in mouse B16-F10 cells at 0.013 to 10 uM by Western blot analysis. It counts as functional, cell-based. The note with it: dose 0.013-10 µM.
The test system of test [19] is Splenocyte. Put plainly: Effect on PTP1B level in mouse splenocytes at 0.013 to 10 uM by Western blot analysis. It is filed as functional, cell-based. The note with it: dose 0.013-10 µM.
Test [20] has as its system Splenocyte. Put plainly: Effect on SHP-1 level in mouse splenocytes at 0.013 to 10 uM by Western blot analysis. It counts as functional, cell-based. The note with it: dose 0.013-10 µM.
Test [21] relates to Splenocyte. The test can be described thus: Effect on SHP-2 level in mouse splenocytes cells at 0.013 to 10 uM by Western blot analysis. The note with it: dose 0.013-10 µM. It is filed as functional, cell-based.
The target of test [22] is T1, von Hippel-Lindau disease tumor suppressor/Tyrosine-protein phosphatase non-receptor type 2. The test can be described thus: PROTAC activity at VHL/PTPN2 in human HepG2 cells assessed as induction of PTPN2 degradation at 0.013 to 10 uM by Western blot analysis. It counts as cell-based. The note with it: dose 0.013-10 µM.
Target sequence in this assay (P40337 whole entry, looked up, one chain of several): as the sequence (P40337 whole entry, looked up, one chain of several) above
Test [23] concerns HepG2. The test can be described thus: Effect on PTP1B level in human HepG2 cells at 0.013 to 10 uM by Western blot analysis. It counts as functional, cell-based. The note with it: dose 0.013-10 µM.
Test [24] deals with T1, von Hippel-Lindau disease tumor suppressor/Tyrosine-protein phosphatase non-receptor type 2. Put plainly: PROTAC activity at VHL/PTPN2 in human Jurkat cells assessed as induction of PTPN2 degradation at 1 uM by Western blot analysis. It is filed as cell-based. To be noted: time 1-48 hrs, TDE = time-dependent effect.
Target sequence in this assay (P40337 whole entry, looked up, one chain of several): as above
The test system of test [25] is Jurkat. The test can be described thus: Effect on PTP1B level in human Jurkat cells at 1 uM incubated for 1 to 48 hrs by Western blot analysis. It is filed as functional, cell-based. The note with it: time 1-48 hrs.
The target of test [26] is T1, von Hippel-Lindau disease tumor suppressor/Tyrosine-protein phosphatase non-receptor type 2. The test can be described thus: PROTAC activity at VHL/PTPN2 in human Jurkat cells assessed as increase in STAT1 phosphorylation incubated for 23 hrs followed by IFN-gamma stimulation for 1 hr by Western blot analysis. It is filed as cell-based. The note with it: dose <= 10.0 µM, time 24.0 hrs.

Test [27] has the same target. The test can be described thus: PROTAC activity at VHL/PTPN2 in IFN-gamma-stimulated human Jurkat cells assessed as induction of PTPN2 degradation at 0.1 to 10 uM incubated for 24 hrs by Western blot analysis. To be noted: dose 0.1-10 µM. It counts as cell-based.
The target is the same in test [28]. The test can be described thus: PROTAC activity at VHL/PTPN2 in IFN-gamma-stimulated human Jurkat cells assessed as increase in STAT1 phosphorylation at 0.1 to 10 uM incubated for 24 hrs by Western blot analysis. It is filed as cell-based. The note with it: dose 0.1-10 µM.
In test [29] the test system is Jurkat. The test can be described thus: Effect on PTP1B level in human Jurkat cells at 0.1 to 10 uM incubated for 24 hrs by Western blot analysis. It counts as functional, cell-based. The note with it: dose 0.1-10 µM.
Test [30] relates to Jurkat. Put plainly: Effect on STAT1 level in human Jurkat cells at 0.1 to 10 uM incubated for 24 hrs by Western blot analysis. It counts as functional, cell-based. The note with it: dose 0.1-10 µM.
Test [31] deals with Splenocyte. The test can be described thus: Induction of cell proliferation in anti-CD3/CD28-stimulated mouse splenocytes incubated for 3 days by CFSE dye based flow cytometry. It counts as functional. To be noted: dose 1.25-5 µM, time 3.0 day. (In flow cytometry, cells or beads pass a laser one at a time.)
Test [32] concerns B16-F10. The test can be described thus: Inhibition of cell growth in IFN-gamma-treated mouse B16-F10 cells assessed as reduction in cell confluency measured upto 96 hrs. It counts as functional, cell-based. The note with it: dose 1.25-5 µM.
Test [33] has as its target T3, Tyrosine-protein phosphatase non-receptor type 1 (Homo sapiens, UniProt P18031).
T3 sequence (P18031 whole entry): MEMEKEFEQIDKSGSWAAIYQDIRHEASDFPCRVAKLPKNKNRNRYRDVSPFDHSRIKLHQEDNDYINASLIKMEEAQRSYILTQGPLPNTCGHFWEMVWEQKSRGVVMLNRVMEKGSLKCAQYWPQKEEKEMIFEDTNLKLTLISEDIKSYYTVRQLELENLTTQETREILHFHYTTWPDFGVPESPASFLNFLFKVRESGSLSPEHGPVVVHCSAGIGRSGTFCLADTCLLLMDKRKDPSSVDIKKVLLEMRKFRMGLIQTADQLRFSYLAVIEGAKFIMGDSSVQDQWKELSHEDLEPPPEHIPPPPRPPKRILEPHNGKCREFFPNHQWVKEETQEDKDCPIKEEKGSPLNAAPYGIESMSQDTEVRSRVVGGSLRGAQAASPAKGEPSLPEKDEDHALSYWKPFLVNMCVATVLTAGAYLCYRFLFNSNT
Put plainly: Inhibition of 6xHis-tagged PTP1B (unknown origin) Escherichia coli BL21 (DE3)-RIL using OMFP as substrate incubated for 30 mins by fluorescence based assay.

In test [34] the target is T4, Tyrosine-protein phosphatase non-receptor type 2 (Homo sapiens, UniProt P17706).
T4 sequence (P17706 whole entry): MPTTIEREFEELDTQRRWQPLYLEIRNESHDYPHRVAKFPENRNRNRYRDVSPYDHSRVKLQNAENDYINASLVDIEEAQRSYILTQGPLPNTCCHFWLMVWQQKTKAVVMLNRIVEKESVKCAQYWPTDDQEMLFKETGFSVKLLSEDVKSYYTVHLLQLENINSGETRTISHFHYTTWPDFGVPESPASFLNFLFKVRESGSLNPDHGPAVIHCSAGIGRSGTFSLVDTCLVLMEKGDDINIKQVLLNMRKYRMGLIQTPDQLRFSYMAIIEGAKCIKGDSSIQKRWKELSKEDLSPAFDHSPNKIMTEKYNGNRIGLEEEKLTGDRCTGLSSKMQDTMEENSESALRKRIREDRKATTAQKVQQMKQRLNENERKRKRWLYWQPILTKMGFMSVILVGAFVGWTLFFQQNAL
The test can be described thus: Inhibition of PTPN2 (unknown origin) using DiFMUP as substrate by […] based assay.

For test [35], the target named is T3, Tyrosine-protein phosphatase non-receptor type 1. Put plainly: Inhibition of PTP1B (unknown origin) using DiFMUP as substrate by […] based assay.

von Hippel-Lindau disease tumor suppressor/Tyrosine-protein phosphatase non-receptor type 1, sequence (P40337 whole entry, one chain of several): as the sequence (P40337 whole entry, looked up, one chain of several) above

For the compound `Cc1ncsc1-c1ccc([C@H](C)NC(=O)[C@@H]2C[C@@H](O)CN2C(=O)[C@@H](NC(=O)CCCCCNC(=O)Cn2cc(-c3ccc4cc(O)c(N5CC(=O)NS5(=O)=O)c(F)c4c3)cn2)C(C)(C)C)cc1`, the Activity in test [1] was 43%; in [2], 81%; in test [3] it was 99%; in test [24], “Tde”; in test [26], “Dose-Dependent Effect”; in [31], “Dose-Dependent Effect”. Further, the pEC50 is 6.66 in [4] and 4.88 in [5]. Besides, the result in [6], in test [14], in test [15], in test [22], in test [27] (DEGRADER) and in test [28] (DEGRADER) was Active. Further, the result in test [7], in [8], in test [9], in test [10], in test [11] and in [12] was inactive. The outcome in test [13], in [16], in [17], in [18], in [19] and in [20] was inactive. For the same compound, the result in test [21], in test [23], in test [25], in test [27], in [28] and in test [29] was inactive. Moreover, the result in [30] was inactive. In test [32], the inhibition entry is “Dose-Dependent Effect”.
Regarding `CC(C)(C)C(=O)Nc1ccc2c(c1)C(=O)C(=O)c1ccccc1-2`, in test [33], the pIC50 was 6.02.
Consider `O=C1CN(c2c(O)cc3ccc(Br)cc3c2F)S(=O)(=O)N1`, for which the negative logarithm of the IC50 (pIC50) was 7.94 in test [34] and 8.08 in test [35].
